Usually AUC(0-t) stands for exposure summed from dosing to a finite time, without extrapolation to infinity. Broadly, the MRT is a mean duration of stay, worked out from the concentration-time curve. One may read the clearance as the rate of elimination divided by the concentration. For orientation: half-life means the time in which the quantity being followed falls by half. As a reminder, the Cmax is the peak of the concentration-time curve. What is called Tmax is the time at which the peak concentration occurs. As usually defined, the bioavailability is the share of a dose that reaches the circulation, judged against a reference dose that is usually intravenous.

The results in this text go back to publication PMC4109680, “Identification and Preclinical Pharmacology of the γ-Secretase Modulator BMS-869780” (International Journal of Alzheimer's Disease, 2014).

The series is described as follows: Pharmacokinetics in male beagle dogs. In kind it is in vivo. The conditions noted are these: plasma, Dog. How it is done:
Male Sprague-Dawley (SD) rats (300–350 g) were fasted overnight, and three per group received BMS-869780 either as an intravenous (IV) infusion in PEG400 : ethanol (90 : 10 w/w) at 1 mg/kg over 5 min via the jugular vein or as nanosuspension (d50 ca. 300 nm) by oral gavage at 5 mg/kg in Povidone K-30 : sodium lauryl sulfate : water (2.5 : 0.12 : 97.38 w/w/w/w). For the IV infusion, serial blood samples were obtained before dose and at 0.17, 0.25, 0.5, 0.75, 1, 2, 4, 6, 8, and 24 hours after dose. For the PO nanosuspension, serial blood samples were obtained before dose and at 0.25, 0.5, 0.75, 1, 2, 4, 6, 8, and 24 h after dose. Blood samples, ~0.3 mL, for all studies were collected from the jugular vein into K3EDTA-containing tubes and then centrifuged at 4°C (1500–2000 ×g) to obtain plasma, which was stored at −20°C until analysis by LC/MS/MS. In male beagle dogs, the PK of BMS-869780 was evaluated in a cross-over study design with a one-week washout between treatments. Dogs were fasted overnight, and three animals (9.5 to 10.7 kg) received BMS-869780 by IV infusion at 1 mg/kg over 5 minutes in PEG400 : ethanol (90 : 10 w/w) or as nanosuspension (d50 ca. 300 nm) by oral gavage at 5 mg/kg in Povidone K-30 : sodium lauryl sulfate : water (2.5 : 0.12 : 97.38 w/w/w/w). Serial blood samples (~0.3 mL) were collected from a saphenous vein into K3EDTA-containing tubes before dose and at 0.083, 0.17, 0.25, 0.5, 0.75, 1, 2, 4, 6, 8, and 24 hours after IV dose, and 0.25, 0.5, 0.75, 1, 2, 4, 6, 8, and 24 hours after oral dose, followed by centrifugation at 4°C (1500 to 2000 ×g) to obtain plasma. Samples were stored at −20°C until analysis of BMS-869780 levels by LC-MS/MS. In male cynomolgus monkeys, the PK of BMS-869780 was evaluated in a cross-over study design with a 1-week washout between treatments. Following an overnight fast, three animals (4.5 to 8 kg) received BMS-869780 by IV infusion via a femoral vein at 1 mg/kg over 10 minutes in PEG400 : ethanol (90 : 10), or by oral gavage at 5 mg/kg in Povidone K-30 : sodium lauryl sulfate : water (2.5 : 0.12 : 97.38). Serial blood samples, ~0.3 mL, were collected from a femoral artery into K3EDTA-containing tubes before dose and at 0.083, 0.17, 0.25, 0.5, 0.75, 1, 2, 4, 6, 8, and 24 hours after IV dose, and 0.25, 0.5, 0.75, 1, 2, 4, 6, 8, and 24 hours after oral dose, followed by centrifugation at 4°C (1500 to 2000 ×g) to obtain plasma. Samples were stored at −20°C until analysis of BMS-869780 levels by LC-MS/MS. The PK parameters of BMS-869780 were obtained by noncompartmental analysis of plasma concentration versus time data (WinNonlin software, Version 5.0; Pharsight Corporation, Mountain View, CA). The peak concentration (C max) and time for C max (T max) were recorded directly from experimental observations. The area under the curve from time zero to the last sampling time (AUC^0-T) and the area under the curve from time zero to infinity (AUC^INF) were calculated using a combination of linear and log trapezoidal summations. The total plasma clearance (CLTp), steady-state volume of distribution (Vss), apparent elimination half-life (T 1/2), and mean residence time (MRT) were estimated after IV administration. The absolute oral bioavailability (F) was estimated as the ratio of dose-normalized AUC values following oral and IV doses.
Figure 9 Pharmacokinetics (PK) of BMS-869780 across species for prediction of human PK. Rats, dogs, and cynomolgus monkeys were dosed with BMS-869780 intravenously (IV ▲) at 1 mg/kg or oral nanosuspension (PO ●) at 5 mg/kg. Plasma concentrations of BMS-869780 were determined for up to 24 hours after the dose. (a) Rat. (b) Dog. (c) Cynomolgus monkey.

`COc1cc(Nc2nc3n(n2)CCCC[C@H]3c2ccc(F)cc2)ccc1-n1cnc(Cl)c1` [BMS-869780]: for the setting “IV 1 mg/kg”, the AUC(0-t) came out at 6.64 ± 2.26 µM·h, the MRT was 6.6 ± 2 h, the clearance stood at 5.7 ± 1.7 mL/min/kg and the half-life is 312 ± 84 min. Also, the Vd (IV 1 mg/kg, read-out: Vss) worked out at 2.2 ± 0.8 L/kg. Further, under “PO suspension 5 mg/kg”, the AUC(0-t) turned out to be 4.55 ± 2.16 µM·h, the maximum concentration (Cmax) is 487 ± 155 nM, the Tmax stood at 1.7 ± 0.6 h and the bioavailability was determined as 13%.
